Reference: patent publication US8815944B2, “Pharmaceutical composition with gelling properties containing a tyrosine derivative” (Ethypharm, priority 2008, dated 2014)
Counter-ions that a name gives are not always drawn.

How the values were obtained:
Format in all cases: physicochemical
[1] = Differential scanning calorimetry (DSC) of organogels in safflower oil; conditions: organogelator 5% (w/w) in safflower oil; for H (enthalpy of the gel-solution transition): area of endothermic peak; for TGS (gel-solution transition temperature): maximum of endothermic peak
Description: (§1) Organogelators at a concentration of 5% (w/w) were solubilized in safflower oil at high temperature (>80° C.) and gels were obtained by cooling the mixture.
The gels were characterized by differential scanning calorimetry (DSC) to obtain gel-solution transition temperatures (TGS) and enthalpy values of the transition (ΔH). Briefly, thermograms of gels were collected on a 2910 TA Instruments DSC system (New Castle, Del.). The instrument was calibrated with indium. Gels were weighed into aluminum pans that were subsequently sealed. Temperature was scanned between 5 and 90° C. at 10° C./min. The reported gel-sol transition temperatures (TGS) and enthalpies (ΔH) corresponded to the maximum and the area of the endothermic peaks respectively.

[2] = Rheological analysis of the gels (gel hardness, complex modulus G*); conditions: organogelator 5% (w/w) in safflower oil; 25±0.1° C., 0.1 to 10 Hz
Description: as §1
Rheological analysis of the gels was performed to determine the gel hardness, by measuring the complex modulus G*. The rheological properties of the organogels were measured by an AR2000 (Advanced Rheometer 2000, TA Instruments, New Castle, Del.), with parallel plate geometry (diameter of 40 mm). Organogels were heated until reaching TGS and they were placed between the parallel plates. The final thickness of the material coat between the plates was 650 to 750 μm. The film was cooled at 4° C. to form the gel. In the linear regime of the gel, the complex modulus G* have been measured as a function of the angular frequency (0.1 to 10 Hz) at 25±0.1° C. G*=(G′^2+G″^2)^0.5 with G′ the storage modulus and G″ the loss modulus.

[3] = Stability after sterilization by γ-radiation, by 1H-NMR; conditions: γ-radiation at 25 kGy on dry ice, 60Co source
Description: All formulation components were sterilized individually. B-TyrOCH3 and rivastigmine hydrogen tartrate (Riv) were sterilized on dry ice by γ-radiation at 25 kGy using a ^60Co source (Nordion Inc., Laval, QC, Canada). Stability of the organogelator and drug after sterilization was confirmed by ^1H-NMR. The safflower oil and NMP were filtered on 0.2-μm polytetrafluoroethylene filters. Safflower oil, B-TyrOCH3 (5% w/w) and Rivastigmine were mixed at 85° C. until solubilisation of the organogelator. N-methylpyrrolidone (NMP) (3% w/w) was added at high temperature, mixed and gel formulation syringes (20 G needle) were prepared, under aseptic conditions and put on ice during 15 minutes and at room temperature before injection. A control formulation was prepared without the organogelator in the same condition (oil formulation).

Compound	H (enthalpy of the gel-solution transition) [1] [kcal/mol]	TGS (gel-solution transition temperature) [1] [°C]	G* (complex modulus, gel hardness) [2] [kPa]	Stability after sterilization [3]
CCCCCCCCCCCCCCCCCCCCCC(=O)N[C@@H](Cc1ccccc1)C(=O)OC [B-Phe-OCH3]	14.6	53	6	–
CCCCCCCCCCCCCCCCCC(=O)N[C@@H](Cc1ccccc1)C(=O)OC [S-Phe-OCH3, N-stearoyl L-phenylalanine methyl ester]	9.08	43	6.1	–
CCCCCCCCCCCCCCCCCC(=O)NC(C)C(=O)OC (stereo not shown) [S-Ala-OCH3]	13.1	60	5	–
CCN(C)C(=O)Oc1cccc([C@H](C)N(C)C)c1 [rivastigmine hydrogen tartrate]	–	–	–	confirmed
CCCCCCCCCCCCCCCCCC(=O)N[C@@H](Cc1ccc(O)cc1)C(=O)OC [S-Tyr-OCH3, N-Stearoyl L-tyrosine methyl ester]	12	65	15.2	–
CCCCCCCCCCCCCCCCCC(=O)N[C@@H](Cc1c[nH]c2ccccc12)C(=O)O [S-Trp-OH, N-stearoyl L-tryptophan]	3.82	122	<0.1	–
CCCCCCCCCCCCCCCCCC(=O)N[C@@H](Cc1ccc(O)cc1)C(=O)O [S-Tyr-OH, N-stearoyl L-tyrosine]	4.3	127	5	–
CCCCCCCCCCCCCCCCCC(=O)N[C@@H](Cc1c[nH]c2ccccc12)C(=O)OC [S-Trp-OCH3, N-stearoyl L-tryptophan methyl ester]	5.5	56	<0.1	–
CCCCCCCCCCCCCCCCCCCCCC(=O)N[C@@H](Cc1ccc(O)cc1)C(=O)OC [B-Tyr-OCH3, N-Behenoyl L-tyrosine methyl ester]	17	74	37.6	–
